Structures can show the parent of a compound that is named as a salt.
Experiments:
[1] = target: T1, NMDA receptor (Rattus norvegicus, UniProt P35439+Q00960); assay: 3H-Ro 25-6981 binding (displacement, rat brain membranes); conditions: 5 nM 3H-Ro 25-6981, 2 hours at 4°C
T1 construct: Membranes were prepared by homogenization of the whole brain minus cerebellum and medulla oblongata; from tissue; host or cells: rat whole brain minus cerebellum and medulla oblongata, membranes
Procedure: 3H-Ro 25-6981 binding (Ro 25-6981 is [R-(R*,S*)]-a-(4-Hydroxy-phenyl)-b-methyl-4-(phenyl-methyl)-1-piperidine propanol)
(§1) Male Füllinsdorf albino rats weighing between 150-200 g were used. Membranes were prepared by homogenization of the whole brain minus cerebellum and medulla oblongata with a Polytron (10.000 rpm, 30 seconds), in 25 volumes of a cold Tris-HCl 50 mM, EDTA 10 mM, pH 7.1 buffer. The homogenate was centrifuged at 48.000 g for 10 minutes at 4°C. The pellet was resuspended using the Polytron in the same volume of buffer and the homogenate was incubated at 37°C for 10 minutes. After centrifugation the pellet was homogenized in the same buffer and frozen at -80°C for at least 16 hours but not more than 10 days. For the binding assay the homogenate was thawed at 37°C, centrifuged and the pellet was washed three times as above in a Tris-HCl 5 mM, pH 7.4 cold buffer. The final pellet was resuspended in the same buffer and used at a final concentration of 200 µg of protein/ml.
3H-Ro 25-6981 binding experiments were performed using a Tris-HCl 50 mM, pH 7.4 buffer. For displacement experiments 5 nM of 3H-Ro 25-6981 were used and non specific binding was measured using 10 µM of tetrahydroisoquinoline and usually it accounts for 10% of the total. The incubation time was 2 hours at 4°C and the assay was stopped by filtration on Whatmann GF/B glass fiber filters (Unifilter-96, Packard, Zürich, Switzerland). The filters were washed 5 times with cold buffer. The radioactivity on the filter was counted on a Packard Top-count microplate scintillation counter after addition of […] of microscint 40 (Canberra Packard S.A., Zürich, Switzerland).
The effects of compounds were measured using a minimum of 8 concentrations and repeated at least once. The pooled normalized values were analyzed using a non-linear regression calculation program which provide IC50 with their relative upper and lower 95% confidence limits (RS1, BBN, USA).

[2] = target: 3H-Prazosine binding; assay: 3H-Prazosine binding (displacement, rat brain membranes); conditions: 0.2 nM 3H-Prazosine, 30 minutes at room temperature
Procedure: as §1, with “a Plytron” for “a Polytron”, “EDTA 10mM,” for “EDTA 10 mM,”, “Tris-HCl 5mM,” for “Tris-HCl 5 mM,”
3H-Prazosine binding experiments were performed using a Tris-HCl 50 mM, pH 7.4 buffer. For displacement experiments 0.2 nM of 3H-Prazosine were used and non specific binding was measured using 100 µM of Chlorpromazine. The incubation time was 30 minutes at room temperature and the assay was stopped by filtration on Whatman GF/B glass fiber filters (Unifilter-96, Canberra Packard S.A., Zürich, Switzerland). The filters were washed 5 times with cold buffer. The radioactivity on the filter was counted on a Packard Top-count microplate scintillation counter after addition of […] of microscint 40 (Canberra Packard S.A., Zürich, Switzerland). The effects of compounds were measured using a minimum of 8 concentrations and repeated at least once. The pooled normalized values were analyzed using a non-linear regression calculation program which provide IC50 with their relative upper and lower 95% confidence limits (RS1, BBN, USA).

[3] = target: T2, NR1C + NR2A (Rattus norvegicus, UniProt Q00959); assay: Electrophysiology on recombinant NMDA receptors (voltage clamp, Xenopus laevis oocytes), NR1C + NR2A; format: cell-based; conditions: 10 µM compound; oocytes clamped to -80 mV; 2.7 µM Glu plus 0.9 µM Gly; mean of four to six oocytes
T2 construct: expressed in transfected cells; host or cells: Xenopus laevis oocytes, nuclear injection of pBC/CMV expression plasmids
T2 sequence (Q00959 23-1464, other chains not shown): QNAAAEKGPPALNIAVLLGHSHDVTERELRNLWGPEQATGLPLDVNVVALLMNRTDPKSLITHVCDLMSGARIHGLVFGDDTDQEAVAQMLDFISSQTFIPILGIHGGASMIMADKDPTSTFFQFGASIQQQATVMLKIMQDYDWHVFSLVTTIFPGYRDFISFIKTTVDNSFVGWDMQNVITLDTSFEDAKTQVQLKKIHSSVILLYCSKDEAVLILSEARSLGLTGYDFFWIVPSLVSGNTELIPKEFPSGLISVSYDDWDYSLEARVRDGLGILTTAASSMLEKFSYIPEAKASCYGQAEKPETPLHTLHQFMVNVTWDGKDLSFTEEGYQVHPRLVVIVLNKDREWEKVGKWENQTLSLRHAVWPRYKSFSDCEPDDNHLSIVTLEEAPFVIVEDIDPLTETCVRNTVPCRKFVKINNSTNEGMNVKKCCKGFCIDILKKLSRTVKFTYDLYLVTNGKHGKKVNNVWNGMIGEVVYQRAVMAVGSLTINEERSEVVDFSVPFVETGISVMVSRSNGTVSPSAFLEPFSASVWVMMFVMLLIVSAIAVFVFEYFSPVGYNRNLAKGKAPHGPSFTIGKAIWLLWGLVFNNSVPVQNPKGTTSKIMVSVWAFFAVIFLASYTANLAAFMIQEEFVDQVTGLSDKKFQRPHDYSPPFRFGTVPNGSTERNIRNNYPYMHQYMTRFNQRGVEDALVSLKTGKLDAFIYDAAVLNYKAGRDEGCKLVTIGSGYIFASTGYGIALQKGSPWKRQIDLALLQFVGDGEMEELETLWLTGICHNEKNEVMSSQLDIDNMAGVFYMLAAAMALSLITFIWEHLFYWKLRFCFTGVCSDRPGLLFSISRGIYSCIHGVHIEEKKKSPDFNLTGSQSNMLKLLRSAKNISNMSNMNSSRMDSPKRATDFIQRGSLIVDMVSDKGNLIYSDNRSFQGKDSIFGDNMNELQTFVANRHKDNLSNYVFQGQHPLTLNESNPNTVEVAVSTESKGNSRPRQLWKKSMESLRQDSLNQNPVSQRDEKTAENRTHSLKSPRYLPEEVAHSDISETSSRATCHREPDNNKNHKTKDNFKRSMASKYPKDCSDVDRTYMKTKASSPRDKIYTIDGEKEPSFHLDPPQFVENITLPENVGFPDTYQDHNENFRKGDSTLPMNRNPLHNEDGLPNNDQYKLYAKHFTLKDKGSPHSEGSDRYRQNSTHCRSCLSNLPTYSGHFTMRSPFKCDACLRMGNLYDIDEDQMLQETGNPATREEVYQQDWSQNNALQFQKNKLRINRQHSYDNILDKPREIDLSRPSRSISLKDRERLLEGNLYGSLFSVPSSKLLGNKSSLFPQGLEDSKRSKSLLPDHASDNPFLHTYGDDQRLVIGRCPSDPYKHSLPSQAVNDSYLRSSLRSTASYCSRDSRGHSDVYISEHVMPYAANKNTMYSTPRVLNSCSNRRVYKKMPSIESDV
Text: (§2) Electrophysiology on recombinant NMDA receptors
(§3) cDNA clones coding for the subunits NR1C and NR2A of the NMDA receptor (see Hollmann and Heinemann, 1994, Annu. Rev. Neurosci. 17:31 for nomenclature of NMDA receptor subunits) were isolated from a rat brain λgt11 cDNA library as published elsewhere (Sigel et al., 1994, J. Biol. Chem. 269:8204). The clone for the subunit NR2B of the rat brain NMDA receptor was obtained from S. Nakanishi (Kyoto, Japan). The cDNAs encoding rat NR1C, NR2A and NR2B were subcloned into the expression vector pBC/CMV (Bertocci et al., 1991, Proc. Natl. Acad. Sci. U.S.A. 88:1416), placing transcription of the cDNA under control of the human cytomegalovirus promoter. CsCl-purified expression plasmids were mixed in a 1:3 ratio of NR1C:NR2A or NR1C:NR2B in injection buffer (88 mM NaCI, 1 mM KCl, 15 mM HEPES, at pH 7.0). Oocytes of South African frogs (Xenopus laevis) were used for expressing either a combination of the NR1C and NR2A subunits or the NR1C and NR2B subunits. 12 to 120 pg of a 1:3 (NR1C:NR2B) mixture of the respective cDNA species were injected into the nucleus of every oocyte. On the following two days the ion current through the NMDA receptor channels was measured in voltage clamp experiments for the methods of cDNA expression in oocytes and voltage-clamping (see, e.g., Bertrand et al., 1991, Methods in Neurosciences 4:174). The membrane potential was clamped to -80 mV and the receptors were activated by applying a modified Ringer's solution containing the NMDA-receptor agonists L-glutamate (Glu) and glycine (Gly). Different agonist concentrations were chosen for either subunit combination to account for the different agonist sensitivities of the two types of receptors (2.7 µM Glu plus 0.9 µM Gly for NR1C + NR2A and 1.3 µM Glu plus 0.07 µM Gly for NR1C + NR2B). The agonists were applied for 15 s intervals once every 2.5 min by rapid superfusion of the oocyte with agonist containing solution and the amplitude of the agonist-evoked current was measured immediately before the end of each application. After a series of initial control applications the antagonist to be tested was added to both, the basal Ringer's and the agonist containing solution. The antagonist concentration applied to oocytes expressing the NR2A subunit was 10 µmol/l, whereas 0.1 µmol/l were applied to the NR2B expressing oocytes. Four to six oocytes were tested for every compound and NMDA receptor subtype. Oocytes were exposed to the compounds for 5 to 30 min depending on the time needed for reaching an equilibrium block of the NMDA receptor current. For every oocyte the decrease of the current amplitude was expressed as a percentage of the control current measured before application of the compound. Figures in the table are arithmetic mean values of these percentage values.

[4] = target: T3, NR1C + NR2B (Rattus norvegicus, UniProt P35439+Q00960); assay: Electrophysiology on recombinant NMDA receptors (voltage clamp, Xenopus laevis oocytes), NR1C + NR2B; format: cell-based; conditions: 0.1 µM compound; oocytes clamped to -80 mV; 1.3 µM Glu plus 0.07 µM Gly; mean of four to six oocytes
T3 construct: expressed in transfected cells; host or cells: Xenopus laevis oocytes, nuclear injection of pBC/CMV expression plasmids
T3 sequence (Q00960 27-1482, other chains not shown): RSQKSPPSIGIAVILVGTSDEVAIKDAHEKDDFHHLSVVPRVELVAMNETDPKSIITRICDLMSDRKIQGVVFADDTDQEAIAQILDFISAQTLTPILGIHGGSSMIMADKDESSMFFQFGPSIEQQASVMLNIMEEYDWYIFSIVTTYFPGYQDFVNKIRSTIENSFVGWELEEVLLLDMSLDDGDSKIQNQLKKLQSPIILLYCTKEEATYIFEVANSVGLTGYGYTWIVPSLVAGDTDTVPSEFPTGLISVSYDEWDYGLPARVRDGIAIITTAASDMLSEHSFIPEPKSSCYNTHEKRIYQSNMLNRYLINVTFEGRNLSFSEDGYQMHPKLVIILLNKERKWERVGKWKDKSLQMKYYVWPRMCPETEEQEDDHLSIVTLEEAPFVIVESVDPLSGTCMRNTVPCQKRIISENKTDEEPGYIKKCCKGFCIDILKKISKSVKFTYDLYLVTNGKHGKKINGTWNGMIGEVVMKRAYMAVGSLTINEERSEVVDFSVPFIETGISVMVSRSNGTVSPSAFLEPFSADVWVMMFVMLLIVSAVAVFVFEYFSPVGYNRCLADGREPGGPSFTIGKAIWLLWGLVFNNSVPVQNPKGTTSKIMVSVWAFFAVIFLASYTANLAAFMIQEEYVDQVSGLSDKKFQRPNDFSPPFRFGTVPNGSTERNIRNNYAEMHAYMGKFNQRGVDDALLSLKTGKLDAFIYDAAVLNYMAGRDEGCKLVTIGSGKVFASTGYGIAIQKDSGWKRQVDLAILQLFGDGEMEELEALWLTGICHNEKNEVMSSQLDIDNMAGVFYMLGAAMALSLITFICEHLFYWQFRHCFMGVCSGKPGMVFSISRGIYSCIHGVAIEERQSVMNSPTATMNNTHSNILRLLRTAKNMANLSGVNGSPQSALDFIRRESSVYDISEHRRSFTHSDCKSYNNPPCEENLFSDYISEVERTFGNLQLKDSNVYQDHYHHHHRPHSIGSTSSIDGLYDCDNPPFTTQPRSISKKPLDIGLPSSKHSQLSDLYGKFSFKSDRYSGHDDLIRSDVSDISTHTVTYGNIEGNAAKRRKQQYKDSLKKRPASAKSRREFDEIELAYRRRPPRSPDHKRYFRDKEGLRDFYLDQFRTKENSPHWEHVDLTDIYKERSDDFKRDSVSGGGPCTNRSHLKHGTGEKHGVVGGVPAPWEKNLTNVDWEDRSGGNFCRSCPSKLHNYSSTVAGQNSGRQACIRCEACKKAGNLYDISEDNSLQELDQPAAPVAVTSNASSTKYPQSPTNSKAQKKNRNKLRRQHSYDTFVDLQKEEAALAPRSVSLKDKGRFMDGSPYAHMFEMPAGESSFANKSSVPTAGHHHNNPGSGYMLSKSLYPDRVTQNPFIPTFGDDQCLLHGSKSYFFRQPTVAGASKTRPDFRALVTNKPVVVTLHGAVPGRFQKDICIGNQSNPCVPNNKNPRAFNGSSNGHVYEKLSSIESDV
Text: as §2, §3

T1 sequence (Q00960 27-1482, other chains not shown): as above

Row | SMILES | IC50 [2] | IC50 [1] | Electrophysiology NR1C + NR2A % block by 10 µM [3] | Electrophysiology NR1C + NR2B % block by 0.1 µM [4]
1 | Oc1ccc2c(c1)CC(CN1CCC(O)(Cc3ccccc3)CC1)O2 (racemic) [Example 4, (RS)-4-Benzyl-1-(5-hydroxy-2,3-dihydro-benzofuran-2-ylmethyl)-piperidin-4-ol hydrochloride] | 2500 nM | 50 nM | – | –
2 | CS(=O)(=O)Nc1ccc2c(c1)CC(CN1CCC(O)(Cc3ccc(Cl)cc3)CC1)O2 (racemic) [Example 22, (RS)-N-{2-[4-(4-chloro-benzyl)-4-hydroxy-pipiridin-1-ylmethyl]-2,3-dihydroxybenzofuran-5-yl}methane sulfonamide hydrochloride] | 6500 nM | – | – | –
3 | Cl.Oc1ccc2c(c1)C[C@@H](CN1CCC(O)(Cc3ccc(Cl)cc3)CC1)O2 [Example 14, (S)-1-(5-Hydroxy-2,3-dihydro-benzofuran-2-ylmethyl)-4-(4-chloro-benzyl)-piperidin-4-ol hydrochloride] | 6000 nM | 5 nM | 9% | 90%
4 | Cc1ccc(CC2(O)CCN(C[C@@H]3Cc4cc(O)ccc4O3)CC2)cc1.Cl [Example 13, (S)-1-(5-Hydroxy-2,3-dihydro-benzofuran-2-ylmethyl)-4-(4-methyl-benzyl)-piperidin-4-ol hydrochloride] | 6000 nM | 14 nM | 8% | 93%
5 | Oc1ccc2c(c1)CC(CN1CCC(O)(Cc3ccc(F)cc3)CC1)O2 (racemic) [Example 5, (RS)-4-(4-fluoro-benzyl)-1-(5-hydroxy-2,3-dihydro-benzofuran-2-ylmethyl)-piperidin-4-ol hydrochloride] | 4000 nM | 40 nM | – | –
6 | Cc1ccc(CC2(O)CCN(CC3Cc4cc(O)ccc4O3)CC2)cc1 (racemic) [Example 2, (RS)-1-(5-Hydroxy-2,3-dihydro-benzofuran-2-ylmethyl)-4-(4-methyl-benzyl)-piperidin-4-ol hydrochloride] | 3200 nM | 20 nM | – | –
7 | Oc1ccc2c(c1)CC[C@H](CN1CCC(O)(Cc3ccccc3)CC1)[C@H]2O (racemic) [Example 29, (1RS,2RS)-2-(4-Benzyl-4-hydroxy-piperidin-1-yl-methyl)-6-hydroxy-1,2,3,4-tetrahydro-naphthalen-1-ol] | 11000 nM | 23 nM | – | –
8 | CCc1ccc(CC2(O)CCN(CC3Cc4cc(O)ccc4O3)CC2)cc1.Cl (racemic) [Example 7, (RS)-4-(4-Ethyl-benzyl)-1-(5-hydroxy-2,3-dihydro-benzofuran-2-ylmethyl)-piperidin-4-ol hydrochloride] | 6000 nM | 12 nM | 12% | 89%

Further lines, with some results ahead:

Row | IC50 [2] | SMILES | IC50 [1] | Electrophysiology NR1C + NR2A % block by 10 µM [3] | Electrophysiology NR1C + NR2B % block by 0.1 µM [4]
9 | 3200 nM | Cc1ccc(CC2(O)CCN(CC3Cc4ccc(O)cc4C3)CC2)cc1 (racemic) [Example 19, (RS)-1-(5-Hydroxy-indan-2-ylmethyl)-4-(4-methyl-benzyl)-piperidin-4-ol] | 55 nM | – | –
10 | 2300 nM | Cc1ccc(CC2(O)CCN(CC3Cc4cc(NS(C)(=O)=O)ccc4O3)CC2)cc1 (racemic) [Example 23, (RS)-N(2-[4-hydroxy-4-(4-methyl-benzyl)-piperidin-1-ylmethyl]-2,3-dihydrobenzofuran-5-yl]-methane sulfonamide hydrochloride] | 40 nM | – | –
11 | 800 nM | Cc1ccc(CC2(O)CCN(CC3CCc4cc(O)ccc4C3)CC2)cc1 (racemic) [Example 30, (RS)-1-(6-Hydroxy-1,2,3,4-tetrahydro-naphthalen-2-ylmethyl)-4-(4-methyl-benzyl)-piperidin-4-ol hydrochloride] | 20 nM | – | –
12 | 5000 nM | Cc1ccc(CC2(O)CCN(CC3Cc4cc(O)ccc4C3O)CC2)cc1 (stereo not drawn) [Example 16, (1RS,2RS) and (1RS,2SR)-2-[4-Hydroxy-4-(4-methyl-benzyl)-piperidine-1-ylmethyl]-indan-1,5-diol fumarate salt] | 23 nM | 6% | 86%
13 | 6000 nM | Cc1ccc(CC2(O)CCN(C[C@H]3CCc4cc(O)ccc4[C@@H]3O)CC2)cc1.O=C(O)/C=C/C(=O)O (racemic) [Example 27, (1RS, 2RS)-1-(1,6-Dihydroxy-1,2,3,4-tetrahydro-naphthalen-2-ylmethyl)-4-(4-methyl-benzyl)-piperidin-4-ol fumarate salt] | – | 15% | 91%
14 | 6600 nM | Cc1ccc(CC2(O)CCN(CC3Cc4cc(O)ccc4N3)CC2)cc1 (racemic) [Example 21, (RS)-2-[4-Hydroxy-4-(4-methyl-benzyl)-piperidin-1-ylmethyl]-2,3-dihydro-1H-indol-5-ol] | 55 nM | – | –
